In patent US12022833B2, “Uracil compound and composition for controlling harmful arthropods comprising the same” (Sumitomo Chemical Company, Limited, priority 2018, dated 2024):

System: diamondback moth (Plutella xylostella)
Assay: Test Example 1: cabbage seedling spray test against diamondback moth larvae
Format: in vivo
Settings: 500 ppm diluted solution sprayed on cabbage seedling, 20 mL/seedling; five second instar larvae; 25° C. for 5 days
Method: Thirty-five (35) parts of a mixture of polyoxyethylene alkyl ether sulfate ammonium salt and wet silica (weight ratio of 1:1), 20 parts of the compound A, and 45 parts of water were mixed thoroughly. The resulting mixture was diluted with water containing 0.03 v/v % of Shindain (registered trademark) to prepare a diluted solution containing 500 ppm of the compound A. The diluted solution was sprayed into the cabbage (Brassicae oleracea) seedling (on the developmental stage of the second to third true leaf) that is planted in a container in a ratio of 20 mL/seedling.
Thereafter, the stem and leaf of thereof was cut out and then was installed into the container that was covered with the filter paper. Five second instar larvae of diamondback moth (Plutella xylostella) were released into the container, and the container was allowed to stand at 25° C. for 5 days. Thereafter, the surviving insects were counted, and the mortality was calculated from the following equation, and as a result, the mortality was 100%. Mortality (%)=(1−Number of the surviving insects/5)×100
The test was carried out according to Test Example 1 using the compound B instead of the compound A. As a result, the mortality was 0%.

Row | SMILES | Mortality [%]
1 | COC(=O)COC(=O)COc1ncccc1Oc1cc(-n2c(=O)cc(C(F)(F)F)n(C)c2=O)c(F)cc1Cl [Compound B] | 0
2 | CCOC(=O)COC(=O)COc1ncccc1Oc1cc(-n2c(=O)cc(C(F)(F)F)n(C)c2=O)c(F)cc1Cl [Compound A] | 100
